Source: patent US10772863B2, “Methods of inducing metabolic maturation of human pluripotent stem cells— derived hepatocytes” (priority 2016, dated 2020)
Several values for one entry are separate records, joined by “and”; a condition that tells them apart may be missing. Equal values may be shown once. Entries after “also recorded” stand apart in the source; their conditions may differ. Read-outs that look alike come from different tables or passages of the source.

Columns and labels:
[1] = system: LCA- and MK4-treated hESC-derived hepatocytes
Experimental: Cultured cells were exposed to different concentrations of compounds dissolved in culture medium for 24 hours at 37° C. Cell viability was determined utilizing LIVE/DEAD Cytotoxicity kit (Molecular Probes, Eugene, Oreg.) according to manufacturer instructions. In brief, cultures were incubated with 2 μM Calcein AM and 3 μM ethidium homodimer-1 for 25 minutes. Hydrolysis by functional intracellular esterases causes live cells to fluoresce green, while the punctured membranes of dead cells permit ethidium homodimer-1 to bind DNA and fluoresce red. Cellular viability was calculated by live to dead ratio and normalized to negative control. TC50 values were quantified using GraphPad Prism software (La Jolla, Calif.).
Differentiation was adapted to 96-well plates (General Materials and Experimental Methods above). Cells were exposed to increasing concentrations of compounds on day 16, and viability was quantified using fluorescence Live/Dead staining after 24 hours of exposure (FIG. 4D).

[2] = system: hESC-derived hepatocytes; type: cell-based, human; conditions: 50 μM LCA
[3] = system: hESC-derived hepatocytes
Experimental: Toxicological endpoints were evaluated for nine hepatotoxic compounds at TC20 values identified above. Quantitation of apoptotic cells was performed utilizing DeadEnd™ fluorometric TUNEL System (Promega, Madison, Wis.) according to manufacturer instructions. […] Cell were permeabilized and exposed to fluorescein-12-dUTP and terminal deoxynucleotidyl transferase (TdT), dying apoptotic nuclei green. The reaction was subsequently stopped and the cells counterstained for DAPI. A percent apoptotic nucleus was calculated by dividing the number of TUNEL to DAPI positive nuclei.

[4] = system: hESC-derived hepatocytes; conditions: human, 24 h
Experimental: Quantification of intracellular lipids was performed using LipidTOX™ Green Neutral Lipid Stain (Molecular Probes). […] Staining intensity was normalized to negative control. […] Incubation media was removed and cultures washed with ice-cold PBS containing calcium and magnesium. The number of green CDF particles was normalized to the number of Hoechst nuclei as an indicator of functional bile canaliculi. Particle and nuclei counting was performed utilizing the ImageJ particle analyzer.

[5] = target: PXR (Homo sapiens, UniProt O75469); type: cell-based
Experimental: (§1) Cultured cells were fixed using 4% paraformaldehyde for 15 minutes at room temperature. […] Following washes, cells were incubated with secondary antibodies for 1 hour at room temperature in blocking buffer (Table 10, hereinbelow). Hoechst staining was performed using bisBenzimide H33342 for 2 minutes. Imaging was performed on a Zeiss LSM 700 confocal microscope.

[6] = system: hESC-derived hepatocytes; type: cell-based, human; conditions: LA replaced with 9CLA, with 100 μM OA
[7] = system: PXR and its CYP2C9 and CYP3A4 target genes
[8] = system: CYP450 (CYP1A, CYP3A4, CYP2C9); conditions: human, 72 h
Experimental: CYP1A activity was evaluated utilizing EROD (ethoxyresorufin-o-deethylase) as previously described (Behnia, 2000). […] Briefly, cultures were incubated with 100 μM BFC (7-benzyloxy-4-trifluoromethylcoumarinat), or 10 μM MFC (7-methoxy-4-trifluoromethylcoumarin) for 1 hour at 37° C. Supernatant samples were collected every 30 minutes for 2.5 hours. The reactions were stopped by collection of the incubation medium. Metabolite conjugates formed via phase II activity were hydrolyzed by incubation of medium samples with β-glucuronidase/arylsulfatase for 2 hours at 37° C. Samples were diluted 1:1 in quenching solution and HFC (7-hydroxy-4-trifluoromethylcoumarin), the respective fluorescent metabolite formation, was measured at the appropriate wavelengths (410/510) and normalized to total protein determined by Bradford.
CYP450 activity was quantified as described above at the end of the stimulation period.

[9] = system: hESC-derived hepatocytes; test: Albumin, AFP and ApoB100 production (ELISA); type: cell-based, human; conditions: cells treated with OA and LA; 24-hours treatment with GW9662
Experimental: Culture media samples were collected daily and stored at −80° C. Albumin and AFP concentrations were analyzed using Human Albumin ELISA quantitation set (Bethyl laboratories, Montgomery, Tex.) and Human AFP (alpha-fetoprotein) Quantikine ELISA kit (R&D Systems, Minneapolis, Minn.), according to manufacturer directions. […] Data was normalized to total cellular protein utilizing the Bradford assay.

[10] = system: hESC-derived hepatocytes; test: qRT-PCR of nuclear receptors, lipid metabolism, albumin and mitochondrial genes after fatty acid treatment; type: cell-based, human
[11] = system: hESC-derived hepatocytes; test: HSP60 immunofluorescence and CellProfiler analysis of mitochondrial network; type: cell-based, human
Experimental: as §1

Sequence of PXR (O75469 whole entry): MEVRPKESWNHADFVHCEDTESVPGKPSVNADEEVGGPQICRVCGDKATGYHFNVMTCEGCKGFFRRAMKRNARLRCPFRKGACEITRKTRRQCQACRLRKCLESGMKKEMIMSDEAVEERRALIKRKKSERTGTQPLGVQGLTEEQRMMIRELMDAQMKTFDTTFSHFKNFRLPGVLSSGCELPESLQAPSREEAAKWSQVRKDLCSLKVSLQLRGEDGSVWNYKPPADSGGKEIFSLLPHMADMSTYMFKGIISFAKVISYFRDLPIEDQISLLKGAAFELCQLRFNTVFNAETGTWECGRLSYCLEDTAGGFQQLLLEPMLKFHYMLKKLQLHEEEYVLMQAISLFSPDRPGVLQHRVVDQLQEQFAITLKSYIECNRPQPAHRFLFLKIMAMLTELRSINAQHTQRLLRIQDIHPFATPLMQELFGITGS

OC[C@@H](O)[C@@H](O)[C@H](O)[C@H](O)CO [mannitol]
toxicity [1]: no adverse effects

C[C@H](CCC(=O)O)[C@H]1CC[C@H]2[C@@H]3CC[C@@H]4C[C@H](O)CC[C@]4(C)[C@H]3CC[C@]12C [LCA, lithocholic acid]
toxicity to differentiating cells [2]: mild toxicity

aflatoxin B1
TC20 concentration used for endpoint assays [1]: 2 µM
DNA fragmentation compared to control [3]: significant increase

CC1CCC(C(C)C)C(O)C1 (centres unmarked) [menthol]
toxicity [1]: no adverse effects

CC(=O)Oc1ccccc1C(=O)O [acetylsalicylic acid]
TC20 concentration used for endpoint assays ([1]; human, 24 h): 2000 µM
increase in intracellular lipids compared to control [4]: 25-26 fold

CCCCCC/C=C/C=C\CCCCCCCC(=O)O [9CLA, cis-9,trans-11-octadecadienoic acid]
increase in PXR nuclear localization compared to untreated cells ([5]; 100 μM each, 9CLA replaces LA, with OA): 50%
additional increase in PXR nuclear localization when LA is replaced with 9CLA ([5]; with OA): 30% and 40%
mitochondrial respiration relative to primary human hepatocytes [6]: 60%
CYP3A4 and CYP2C9 gene expression ([7]; hepatocytes): increased significantly

CC(C)=CCC/C(C)=C/CC/C(C)=C/CC/C(C)=C/CC1=C(C)C(=O)c2ccccc2C1=O [MK4, menaquinone-4]
PXR expression induction ([7]; 10 μM, final maturation step): 1.9 fold

COc1ccc2[nH]c([S+]([O-])Cc3ncc(C)c(OC)c3C)nc2c1 (centres unmarked) [Omeprazole, omeprazole]
induction of BFC metabolism [8]: 3 fold
induction of EROD metabolism ([8]; 50 μM): 9 fold
induction of CYP450 activity ([8]; hepatocytes, 50 μM): preferentially induced CYP1A

COc1ccc2[nH]cc(CCNC(C)=O)c2c1 [melatonin]
toxicity [1]: clear toxicity
TC50 ([1]; human, 24 h): 700 ± 200 µM
increase in intracellular lipids compared to control [4]: 30 fold
intracellular lipid accumulation [4]: significant (P<0.006) increase
effect on cell viability [3]: not affecting

O=C(Nc1ccccc1)c1cc([N+](=O)[O-])ccc1Cl [GW9662]
effect on PXR nuclear localization ([5]; fatty acid treated cells): down-regulated; also recorded: significant decrease
effect on albumin secretion / albumin gene expression and production [9]: significant decrease; also recorded: blocked
effect on expression of genes involved in lipid metabolism ([10]; 24-hours treatment, OA and LA treated cells): inhibited
PGC1, MFN2 and FIS1 gene expression ([10]; fatty acid treated cells): decrease
effect on fatty acid induced elongation and narrowing of mitochondria [11]: reversed the effect
CYP3A4 and CYP2C9 gene expression ([7]; fatty acid treated cells): down-regulated

Cc1c(C)c2c(c(C)c1O)CCC(C)(COc1ccc(CC3SC(=O)NC3=O)cc1)O2 (centres unmarked) [troglitazone]
TC20 concentration used for endpoint assays ([1]; human, 24 h): 80 µM
decrease in number of CDF-positive bile canaliculi compared to control [4]: 13-30 fold
loss of epithelial polarization [4]: 14 fold

CCCC(CCC)C(=O)O [valproic acid]
increase in intracellular lipids compared to control [4]: 25-26 fold

O=C(O)Cc1ccccc1Nc1c(Cl)cccc1Cl [diclofenac]
TC20 concentration used for endpoint assays ([1]; human): 300 µM
DNA fragmentation compared to control [3]: significant increase
increase in percent of apoptotic nuclei compared to control ([3]; human, 24 h): 3-4 fold

C[S+](C)[O-] [DMSO, Dimethyl sulfoxide]
CYP450 gene expression ([7]; human, hepatocytes, 2 %): increased expression of all CYP450 enzymes measured
increase in expression of PXR and most CYP450 enzymes checked ([7]; human, hepatocytes, 2 %): 2-6 fold

CN(C)CCCN1c2ccccc2Sc2ccc(Cl)cc21 [chlorpromazine]
TC20 concentration used for endpoint assays ([1]; human, 24 h): 45 µM
decrease in number of CDF-positive bile canaliculi compared to control [4]: 13-30 fold
loss of epithelial polarization [4]: 14 fold
